Data: publication PMC5847527, “Identification of a novel 2-oxindole fluorinated derivative as in vivo antitumor agent for prostate cancer acting via AMPK activation” (Scientific Reports, 2018)

Legend:
AMPK = molecular target: T1, AMPK (Homo sapiens, UniProt Q13131); experiment: AMPK and ACC phosphorylation by Western blot in PC-3 cells; type: cell-based; details: 25 µM, 1 hour
T1 construct: endogenous in cells; host or cells: PC-3, DU145, LNCaP
Source text: To investigate the effect of the compounds on AMPK activity at cellular level, compounds 8a-c and 9a-b were selected to perform AMPK phosphorylation assays in human prostate cancer cell lines. We use the PC-3 cell line as it is androgen-resistant and represents the advanced and aggressive stage of prostate cancer. […] AMPK inhibits lipogenic pathway through phosphorylation of its well-known substrate acetyl-CoA carboxylase (ACC). To confirm the modulation of AMPK activity in prostate cells by the compounds, we determined levels of phosphorylated ACC in 2-oxindole fluorinated derivatives-treated cells. […] It is worthy to note that the highest ACC phosphorylation was obtained with compound 8c denoting a powerful activity of this compound in PC-3 cells.
Figure 2 Effect of 2-oxindole fluorinated derivatives on AMPK activity in prostate cancer cells. (A) PC-3, DU145 and LNCaP cells were treated with 25 µM of the selected 2-oxindole fluorinated derivatives for 1 hour. Levels of the phosphorylated AMPK (pAMPK), phosphorylated ACC (pACC) and their total forms were determined by Western blot. Upper panel, a representative Western blot of three different experiments. β-tubulin (β-Tub) serves as a loading control. […] Lower panels, densitometric analyses of bands represented as the mean of the ratio pAMPK/AMPK or pACC/ACC ± SD of three different experiments. *p < 0.05 compared with the controls by one-way ANOVA followed by Fisher’s LSD test; ^#p < 0.05 compared with 2-oxindole fluorinated derivates or with the AMPK activators AMP or A769662 by one-way ANOVA followed by Tukey test.
Human prostate cancer epithelial PC-3, DU145 and LNCaP and human prostate normal RWPE-1 cells were purchased from American Type Culture Collection (ATCC CRL-1435 CRL-1740 and CRL 11609 respectively) (Rockville, MD, USA). The human prostate normal PNT2 cell line was purchased to ECACC (European Collection of Cell cultures, Salisbury, SP4 0JG, UK). Cells were routinely grown in RPMI 1640 medium supplemented with 100 IU/ml penicillin G sodium, 100 µg/ml streptomycin sulfate, 0.25 µg/ml amphotericin B (Invitrogen, Paisley, UK) and 10% fetal calf serum. Cells were used at passages between 10–20. For treatment experiments, cells were plated and grown over night, the medium was then replaced with serum-free RPMI 1640 for 24 hours and then incubated with different doses of the compounds for the indicated times.
Cells were lysed in Lysis buffer (50 mM Tris pH 7.4, 0.8 M NaCl, 5 mM MgCl2, 0.1% Triton X-100) containing Protease Inhibitor and Phosphatase inhibitor Cocktails (Roche, Basel, Switzerland). Protein concentrations were measured by BioRad™ protein assay kit (Richmond, CA, USA). Equal amount of protein (20 μg) from each sample was separated on 8% SDS–PAGE gels and transferred to PVDF membranes (BioRad). The membranes were blocked with blocking buffer (1× TBS, 0.1% Tween 20 with 5% w/v fat-free dry milk), washed and incubated with primary antibodies at 4 °C for 12 h. The membranes were subsequently washed with TBS-T (1× TBS and 0.1% Tween 20) and incubated with horseradish peroxidase-conjugated anti-mouse or anti-rabbit IgG antibodies (Sigma, St Louis, MO, USA) at room temperature for 1 h. The immune complex was visualized with an ECL system (Cell Signaling Technology). Films were analyzed by densitometry. The anti-pAMPKα1-thr172, pACC-ser79, pP53, P21, pRaptor and the antibodies against the corresponding total forms were obtained from Cell Signaling Technology (Danvers, MA, USA). The anti-caspase 3 and anti-procaspase 3 were from Santa Cruz Biotechnology (Dallas, Texas, USA). The anti-HIF1A was from Novus Biologicals LLC (Littleton, CO, USA). The anti-Cyclin D1 antibody was obtained from ThermoFisher (Alcobendas, Madrid, Spain). All the other chemicals were obtained from Sigma (St. Louis, MO, USA).

HIF-1A = HIF-1A expression by Western blot in PC-3 and LNCaP cells; type: cell-based, human; details: 25 µM
Description: To further confirm the compound 8c-induced activation of AMPK, PC-3 and LNCaP cells were incubated with the compound for 1 h and 24 hours in the presence of the AMPK inhibitor Dorsomorphin. […] Accordingly, ACC phosphorylation was increased at 1 h and 24 h and prevented by Dorsomorphin in both cell lines. AMPK inhibits mTORC1 through phosphorylation of Raptor on two well-conserved serine residues (ser722 and ser792) inducing cell-cycle arrest in response to an energy stress. To further support the 8c-induced AMPK activation, we determined Raptor phosphorylation on Ser792 in prostate cells.
Figure 5 AMPK activation by compound 8c in prostate cancer cells. (A) PC-3 and LNCaP cells were treated with vehicle, 25 µM compound 8c, 25 µM compound 8c + 5 μM Dorsomorphin (8c + D) or 5 μM Dorsomorphin (D), for 1 hour or 24 hours and levels of the phosphorylated AMPK (pAMPK), phosphorylated ACC (pACC), phosphorylated Raptor (pRaptor) forms and HIF1α were determined by Western blot. Upper panel, representative Western blot of three different experiments. β-tubulin (β-Tub) serves as a loading control. […] (B) Cell viability monitored by MTT assay in PC-3 and LNCaP cells treated with vehicle, 25 µM and 50 μM compound 8c alone or in the presence of 5 μM Dorsomorphin or transfected with control siRNA (siC) or α1AMPK-selective siRNA (siAMPK). […]

T1 sequence (Q13131 whole entry): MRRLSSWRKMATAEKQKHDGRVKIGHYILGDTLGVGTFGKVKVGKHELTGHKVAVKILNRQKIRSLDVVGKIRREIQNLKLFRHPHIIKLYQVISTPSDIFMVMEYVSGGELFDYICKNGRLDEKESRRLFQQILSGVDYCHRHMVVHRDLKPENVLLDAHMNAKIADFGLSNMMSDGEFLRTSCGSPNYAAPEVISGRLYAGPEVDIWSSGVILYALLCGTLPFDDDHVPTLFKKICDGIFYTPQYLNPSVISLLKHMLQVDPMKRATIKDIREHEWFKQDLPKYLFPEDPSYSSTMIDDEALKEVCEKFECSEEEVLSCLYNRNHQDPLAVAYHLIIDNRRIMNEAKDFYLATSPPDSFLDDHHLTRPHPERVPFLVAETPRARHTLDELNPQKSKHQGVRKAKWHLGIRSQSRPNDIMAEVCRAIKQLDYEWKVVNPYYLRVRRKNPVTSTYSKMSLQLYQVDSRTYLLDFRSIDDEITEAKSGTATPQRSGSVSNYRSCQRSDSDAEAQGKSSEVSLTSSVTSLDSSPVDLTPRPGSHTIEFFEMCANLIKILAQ
T1 sequence (Q9Y478 2-270 partner limits assumed): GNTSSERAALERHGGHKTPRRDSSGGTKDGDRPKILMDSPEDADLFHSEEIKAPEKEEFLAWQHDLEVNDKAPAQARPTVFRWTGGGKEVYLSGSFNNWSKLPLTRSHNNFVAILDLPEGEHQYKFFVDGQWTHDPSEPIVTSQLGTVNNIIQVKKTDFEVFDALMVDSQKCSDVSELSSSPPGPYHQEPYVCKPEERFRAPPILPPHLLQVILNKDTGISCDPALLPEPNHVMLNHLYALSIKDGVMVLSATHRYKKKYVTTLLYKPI
T1 sequence (P54619 whole entry partner): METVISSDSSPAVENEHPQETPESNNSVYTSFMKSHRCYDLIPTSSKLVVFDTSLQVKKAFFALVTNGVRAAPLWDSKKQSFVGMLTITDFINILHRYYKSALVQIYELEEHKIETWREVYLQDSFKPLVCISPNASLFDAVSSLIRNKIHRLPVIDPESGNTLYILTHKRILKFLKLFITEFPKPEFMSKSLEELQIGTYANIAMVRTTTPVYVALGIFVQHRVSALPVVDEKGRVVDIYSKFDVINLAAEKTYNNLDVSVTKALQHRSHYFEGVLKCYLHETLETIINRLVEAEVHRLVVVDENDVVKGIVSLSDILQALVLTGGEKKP

Structure (SMILES): O=C1Nc2ccccc2C1(F)Cc1ccc(-c2ccccc2)o1 (stereo not drawn) [Compound 8c, 3-fluoro-3-((5-phenylfuran-2-yl)methyl)indolin-2-one]
- ACC phosphorylation (pACC/ACC) (AMPK): augmented pACC
- Thr172 phosphorylation of AMPK (pAMPK/AMPK) (AMPK; compared to controls): significant increase in Thr172 phosphorylation of AMPK
- expression of HIF-1A (HIF-1A): expression of HIF-1A was decreased
